Data published in US20210040151A1, “MICROMOLECULE POLYPEPTIDE AND USE THEREOF” (NANFANG HOSPITAL OF SOUTHERN MEDICAL UNIVERSITY, priority 2019, published 2021).
“Also recorded” adds a separate entry of the source.

What was measured:
UUO mice = test: Kidney fibrosis in UUO (unilateral ureter ligation) mouse model: sirus scarlet staining, fibronectin immunostaining, western blot; format: in vivo, BALB/C mice
Procedure: (§1) BALB/C mice, male and female, a weight ranging from 20 g to 22 g, and a SPF grade.
(§2) The animals were weighed and numbered. 18 healthy mice with a weight ranging from 20 g to 22 g were selected and randomly divided into 3 groups, with 6 mice in each group, including a sham operation group, a model group and an administration group.
(§3) 1) Sham operation group: at a room temperature, after mice were anaesthetized with 3% pentobarbital sodium at 1 ml/kg body weight, a left abdomen part of 2 cm to 3 cm was selected as an incision; and skin, a subcutaneous layer, a muscular layer and a peritoneum were cut layer by layer after local disinfection, and then were sutured layer by layer immediately after finding a left ureter. After local disinfection, the mice were verified and marked, and then placed in a corresponding mouse cage.
(§4) 2) Model control group: anesthetization and disinfection were performed same as the sham operation group. Skin, a subcutaneous layer, a muscular layer and a peritoneum were cut layer by layer, and then were sutured layer by layer after finding a left ureter and performing a ligation at an upper ⅓ segment of the ureter. After local disinfection, the mice were verified and marked, and then placed in a corresponding mouse cage.
as §4, with “3) Administration” for “2) Model control”, “as” for “as the”
KP-6T or KP-6 water soluble powder was diluted with sterile 0.01 Mol glacial acetic acid solution to a storage concentration of 10 mg/ml. The mice of each experimental group were raised in different cages. The sham operation group was only observed. The model control group was only given 0.01 Mol glacial acetic acid solution by tail vein injection. The administration group was given glacial acetic acid solution containing KP-6T or KP-6 of 0.5 mg/kg of body weight by tail vein injection on the 1st or 5th day after UUO operation for 6 consecutive days. The mice in each group were euthanized after 7 days or 11 days of raising, left kidneys were taken, and then tissues were respectively fixed with 10% neutral formaldehyde and frozen with liquid nitrogen. The formaldehyde-fixed tissues were dehydrated, embedded, sliced and flaked, and then subjected to sirus scarlet staining and fibronectin immumohistochemical staining respectively. A protein was extracted after homogenization of the frozen tissues, and a fibrosis index, and expression levels of an active-β-catenin and a target gene thereof were detected by western blot.
1) A degree of kidney tissue fibrosis was detected by sirus scarlet staining.

β-catenin signal pathway = β-catenin signal pathway in kidney tissue of UUO mice: western blot, mRNA of target genes; format: in vivo, BALB/C mice
Procedure: as §1, §2, §3, §4
as §4, with “3) Administration” for “2) Model control”, “as” for “as the”
KP-6T or KP-6 water soluble powder was diluted with sterile 0.01 Mol glacial acetic acid solution to a storage concentration of 10 mg/ml. The mice of each experimental group were raised in different cages. […] A protein was extracted after homogenization of the frozen tissues, and a fibrosis index, and expression levels of an active-β-catenin and a target gene thereof were detected by western blot.

[1] = UUO mice, 0.5 mg/kg tail vein injection for 6 days from 1st or 5th day after UUO, vs model control group (FIG. 2 and FIG. 5)
[2] = advanced UUO mouse, administration from 5th day after UUO, 0.5 mg/kg tail vein, vs model group (FIG. 7)
[3] = advanced UUO mouse, administration from 5th day after UUO, 0.5 mg/kg tail vein, vs model group (FIG. 7), 0.5 mg/kg
[4] = UUO mice, 0.5 mg/kg tail vein injection for 6 days from 1st or 5th day after UUO, vs model control group (FIG. 3 and FIG. 6)

In the case of “LQDAYGGWANR (Synthesized by Nanjing Genscript Biotechnology Co. Ltd.) [KP-6T]”, the “collagen deposition in renal interstitium (sirus scarlet staining)” value (UUO mice; UUO mice, 0.5 mg/kg tail vein injection for 6 consecutive days from 1st or 5th day after UUO, vs model control group (FIG. 1 and FIG. 4)) is reported as “significantly lower”, the “level of fibronectin in kidneys” value (UUO mice; [1]) is reported as “significantly reduced” and the “level of smooth muscle actin α (α-SMA) in kidneys” value (UUO mice; [1]) is reported as “significantly reduced”. For the same sequence, the “collagen deposition in the renal interstitium” value (UUO mice; administered the 5th day after UUO) was “significantly inhibit”, the “deposition of extracellular matrix in renal interstitium” value (UUO mice; [2]) was “significantly reduced” and the “protein Klotho expressed by healthy kidney tubular epithelial cells” value (UUO mice; [2]) was “recovered”. For the same sequence, the “level of fibronectin in kidneys” value (UUO mice; [3]) was “significantly reduced; also recorded: significantly inhibit”, the “level of smooth muscle actin α (α-SMA) in kidneys” value (UUO mice; [3]) was “significantly reduced; also recorded: significantly inhibit” and the “expression level of downstream target gene of β-catenin (PAI-1, Snail-1, MMP7 mRNA) in kidneys” value (β-catenin signal pathway; [4]) was “significantly reduced”. The “expression level of β-catenin protein in kidneys” value (β-catenin signal pathway; [4]) was “significantly reduced” and the “Wnt signal pathway (active-β-catenin)” value (β-catenin signal pathway; [2]) was “inhibited”.
